{
  "source": "patent US20200325139A1",
  "about": "“NEW ANTIBIOTICS TARGETING MYCOBACTERIA” (priority 2017, published 2020)",
  "key": {"M. tuberculosis H37Rv": {"system": "M. tuberculosis H37Rv", "assay": "microbe, parasite or virus in culture", "type": "cell-based", "settings": "for MIC: Mycobacterium tuberculosis, H37RV"}, "M. abscessus CIP104536": {"system": "M. abscessus CIP104536", "assay": "MIC of amoxicillin in presence or absence of DBOs, microdilution", "type": "cell-based", "settings": "for Fold reduction in the MIC of amoxicillin: M. abscessus, DBO 15 μM; for MIC: Mycobacteroides abscessus; for MIC / MIC of amoxicillin: M. abscessus CIP104536, DBO at 15 μM, listed as None = amoxicillin alone"}, "BlaMab": {"system": "BlaMab", "assay": "Carbamoylation of β-lactamase by DBOs, nitrocefin spectrophotometry", "type": "biochemical, Mycobacterium abscessus", "settings": "for Carbamoylation efficacy of β-lactamase BlaMab: 20° C., nitrocefin 100 μM, MES pH 6.4"}, "BlaC": {"target": "BlaC (Mycobacterium tuberculosis, UniProt P9WKD3)", "sequence (P9WKD3 39-306)": "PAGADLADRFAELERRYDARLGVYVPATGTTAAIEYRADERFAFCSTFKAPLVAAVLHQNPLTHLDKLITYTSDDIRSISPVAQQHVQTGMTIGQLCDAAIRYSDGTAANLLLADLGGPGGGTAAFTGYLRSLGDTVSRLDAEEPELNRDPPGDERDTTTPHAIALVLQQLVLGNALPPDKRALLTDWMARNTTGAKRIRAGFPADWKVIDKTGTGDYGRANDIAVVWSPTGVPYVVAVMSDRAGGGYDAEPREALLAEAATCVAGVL", "assay": "Carbamoylation of β-lactamase by DBOs, nitrocefin spectrophotometry", "type": "biochemical", "settings": "for Carbamoylation efficacy of β-lactamase BlaC: 20° C., nitrocefin 100 μM, MES pH 6.4, highest DBO concentration 100 μM"}, "Ldtfm": {"system": "Ldtfm", "assay": "Inhibition of L,D-transpeptidase by DBOs, residual nitrocefin hydrolysis", "type": "biochemical, E. faecium", "settings": "260 min at 37° C."}, "LdtMt2": {"target": "LdtMt2 (Mycobacterium tuberculosis, UniProt I6Y9J2)", "sequence (I6Y9J2 55-408)": "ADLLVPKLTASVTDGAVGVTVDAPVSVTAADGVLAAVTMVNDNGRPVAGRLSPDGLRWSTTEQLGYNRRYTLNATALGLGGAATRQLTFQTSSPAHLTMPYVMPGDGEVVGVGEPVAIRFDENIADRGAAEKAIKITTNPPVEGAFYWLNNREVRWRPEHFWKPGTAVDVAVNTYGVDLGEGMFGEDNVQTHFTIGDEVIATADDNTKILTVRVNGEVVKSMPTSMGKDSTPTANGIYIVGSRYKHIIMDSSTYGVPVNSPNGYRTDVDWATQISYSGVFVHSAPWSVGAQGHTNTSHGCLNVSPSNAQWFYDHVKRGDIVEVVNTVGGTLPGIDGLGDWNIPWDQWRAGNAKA", "assay": "Inhibition of L,D-transpeptidase by DBOs, residual nitrocefin hydrolysis", "type": "biochemical, M. tuberculosis", "settings": "260 min, Inhibitor/LdtMt2 molar ratio 20 (DBO 200 μM, enzyme 10 μM); 260 min at 37° C.; read-out: Residual activity of LdtMt2 following pre-incubation"}, "[1]": {"system": "M. tuberculosis H37Rv ΔblaC", "assay": "microbe, parasite or virus in culture", "type": "cell-based", "settings": "for MIC: Mycobacterium tuberculosis, H37RV"}, "[2]": {"system": "M. abscessus CIP104536 ΔblaMab", "assay": "microbe, parasite or virus in culture", "type": "cell-based", "settings": "for MIC: Mycobacteroides abscessus"}, "[3]": {"settings": "Inhibitor/Ldtfm molar ratio 1, enzyme 10 μM"}, "[4]": {"settings": "Inhibitor/Ldtfm molar ratio 2.5, enzyme 10 μM"}, "[5]": {"settings": "Inhibitor/Ldtfm molar ratio 5, enzyme 10 μM"}, "[6]": {"settings": "Inhibitor/Ldtfm molar ratio 10, enzyme 10 μM"}, "[7]": {"settings": "Inhibitor/Ldtfm molar ratio 20 (DBO 200 μM, enzyme 10 μM)"}, "[8]": {"settings": "read-out: MIC of amoxicillin against indicated strain"}},
  "note": "Where two headings read alike, the source gives them in different places.",
  "data": [
    {"smiles": "NC(=O)[C@@H]1CC[C@@H]2CN1C(=O)N2OS(=O)(=O)O", "note": "[Avibactam, reference compound]", "values": [
      {"measurement": "Fold reduction in the MIC of amoxicillin", "setting": "M. tuberculosis H37Rv", "result": "at least 16 fold"},
      {"measurement": "Fold reduction in the MIC of amoxicillin", "setting": "M. abscessus CIP104536", "result": "at least 16 fold"},
      {"measurement": "Carbamoylation efficacy of β-lactamase BlaMab", "setting": "BlaMab", "result": "(1.7 ± 0.1) × 10^5 M^−1 s^−1"},
      {"measurement": "Inhibition of the β-lactamase activity of BlaMab (in words)", "setting": "BlaMab; nitrocefin as the substrate", "result": "most efficacious inhibition"},
      {"measurement": "Carbamoylation efficacy of β-lactamase BlaC", "setting": "BlaC", "result": "(2.4 ± 0.8) × 10^1 M^−1 s^−1"},
      {"measurement": "Inhibition of the β-lactamase activity of BlaC (in words)", "setting": "BlaC; nitrocefin as the substrate, tested up to 100 μM", "result": "poorly inhibited"},
      {"measurement": "Residual activity of Ldtfm following pre-incubation", "setting": "Ldtfm; [3]", "result": 66.3, "unit": "%"},
      {"measurement": "Residual activity of Ldtfm following pre-incubation", "setting": "Ldtfm; [4]", "result": 36.4, "unit": "%"},
      {"measurement": "Residual activity of Ldtfm following pre-incubation", "setting": "Ldtfm; [5]", "result": 15.8, "unit": "%"},
      {"measurement": "Residual activity of Ldtfm following pre-incubation", "setting": "Ldtfm; [6]", "result": 3.4, "unit": "%"},
      {"measurement": "Residual activity of Ldtfm following pre-incubation", "setting": "Ldtfm; [7]", "result": 2.4, "unit": "%"}
    ]},
    {"smiles": "COCc1cn(C[C@@H]2CC[C@@H]3CN2C(=O)N3OS(=O)(=O)O)nn1", "note": "[Compound 1a.i.13]", "values": [
      {"measurement": "remaining activity at 200 µM", "setting": "LdtMt2", "result": 41.7, "unit": "%"}
    ]},
    {"smiles": "O=C1N2C[C@@H](CC[C@H]2Cn2cc(CN3CCOCC3)nn2)N1OS(=O)(=O)[O-].[Na+]", "note": "[Compound 1a.i.11]", "values": [
      {"measurement": "Fold reduction in the MIC of amoxicillin", "setting": "M. tuberculosis H37Rv", "result": "less active"},
      {"measurement": "Fold reduction in the MIC of amoxicillin", "setting": "M. abscessus CIP104536", "result": "less active"},
      {"measurement": "Carbamoylation efficacy of β-lactamase BlaMab", "setting": "BlaMab", "result": "(4.4 ± 0.2) × 10^3 M^−1 s^−1"},
      {"measurement": "Carbamoylation efficacy of β-lactamase BlaC", "setting": "BlaC", "result": "<5 × 10^0 M^−1 s^−1"},
      {"measurement": "Residual activity of Ldtfm following pre-incubation", "setting": "Ldtfm; [3]", "result": 92.0, "unit": "%"},
      {"measurement": "Residual activity of Ldtfm following pre-incubation", "setting": "Ldtfm; [4]", "result": 83.9, "unit": "%"},
      {"measurement": "Residual activity of Ldtfm following pre-incubation", "setting": "Ldtfm; [5]", "result": 68.6, "unit": "%"},
      {"measurement": "Residual activity of Ldtfm following pre-incubation", "setting": "Ldtfm; [6]", "result": 51.8, "unit": "%"},
      {"measurement": "Residual activity of Ldtfm following pre-incubation", "setting": "Ldtfm; [7]", "result": 28.1, "unit": "%"},
      {"measurement": "remaining activity at 200 µM", "setting": "LdtMt2", "result": 73.9, "unit": "%"}
    ]},
    {"smiles": "O=C1N2C[C@@H](CC[C@H]2Cn2cc(-c3ccccc3)nn2)N1OS(=O)(=O)O", "note": "[Compound 1a.i.16]", "values": [
      {"measurement": "remaining activity at 200 µM", "setting": "LdtMt2", "result": 8.3, "unit": "%"}
    ]},
    {"smiles": "O=C(O)CCc1cn(C[C@@H]2CC[C@@H]3CN2C(=O)N3OS(=O)(=O)O)nn1", "note": "[Compound 1a.i.14]", "values": [
      {"measurement": "remaining activity at 200 µM", "setting": "LdtMt2", "result": 87.1, "unit": "%"}
    ]},
    {"smiles": "CC1(C)S[C@@H]2[C@H](NC(=O)[C@H](N)c3ccc(O)cc3)C(=O)N2[C@H]1C(=O)O", "note": "[amoxicillin, reference compound]", "values": [
      {"measurement": "MIC", "setting": "M. tuberculosis H37Rv; read-out: MIC of amoxicillin", "result": 128, "unit": "mg/L"},
      {"measurement": "MIC", "setting": "M. tuberculosis H37Rv; [8]", "result": 128, "unit": "mg/L"},
      {"measurement": "MIC", "setting": "[1]; read-out: MIC of amoxicillin", "result": 1, "unit": "mg/L"},
      {"measurement": "MIC", "setting": "[1]; [8]", "result": 1, "unit": "mg/L"},
      {"measurement": "MIC", "setting": "M. abscessus CIP104536; Table 1, read-out: MIC of amoxicillin", "result": "> 256", "unit": "mg/L"},
      {"measurement": "MIC", "setting": "M. abscessus CIP104536; Table 2, read-out: MIC of amoxicillin against indicated strain", "result": "> 256", "unit": "mg/L"},
      {"measurement": "MIC of amoxicillin", "setting": "M. abscessus CIP104536; Table 1", "result": ">256", "unit": "mg/L"},
      {"measurement": "MIC", "setting": "[2]; CIP104536, read-out: MIC of amoxicillin", "result": 4, "unit": "mg/L"},
      {"measurement": "MIC", "setting": "[2]; CIP104536, read-out: MIC of amoxicillin against indicated strain", "result": 4, "unit": "mg/L"}
    ]},
    {"smiles": "O=C1N2C[C@@H](CC[C@H]2Cn2cc(-c3cccnc3)nn2)N1OS(=O)(=O)O", "note": "[Compound 1a.i]", "values": [
      {"measurement": "Fold reduction in the MIC of amoxicillin", "setting": "M. tuberculosis H37Rv", "result": "activity similar to that of avibactam"},
      {"measurement": "MIC of amoxicillin", "setting": "M. tuberculosis H37Rv", "result": 16, "unit": "mg/L"},
      {"measurement": "MIC of amoxicillin", "setting": "[1]", "result": 1, "unit": "mg/L"},
      {"measurement": "Fold reduction in the MIC of amoxicillin", "setting": "M. abscessus CIP104536", "result": "activity similar to that of avibactam"},
      {"measurement": "MIC of amoxicillin", "setting": "M. abscessus CIP104536; Table 1", "result": 16, "unit": "mg/L"},
      {"measurement": "MIC of amoxicillin", "setting": "[2]; Table 1, M. abscessus CIP104536 ΔblaMab, DBO at 15 μM, listed as None = amoxicillin alone", "result": 4, "unit": "mg/L"},
      {"measurement": "Carbamoylation efficacy of β-lactamase BlaMab", "setting": "BlaMab", "result": "(2.2 ± 0.1) × 10^4 M^−1 s^−1"},
      {"measurement": "Carbamoylation efficacy of β-lactamase BlaC", "setting": "BlaC", "result": "<5 × 10^0 M^−1 s^−1"},
      {"measurement": "Residual activity of Ldtfm following pre-incubation", "setting": "Ldtfm; [3]", "result": 88.6, "unit": "%"},
      {"measurement": "Residual activity of Ldtfm following pre-incubation", "setting": "Ldtfm; [4]", "result": 76.1, "unit": "%"},
      {"measurement": "Residual activity of Ldtfm following pre-incubation", "setting": "Ldtfm; [5]", "result": 63.6, "unit": "%"},
      {"measurement": "Residual activity of Ldtfm following pre-incubation", "setting": "Ldtfm; [6]", "result": 34.3, "unit": "%"},
      {"measurement": "Residual activity of Ldtfm following pre-incubation", "setting": "Ldtfm; [7]", "result": 15.8, "unit": "%"},
      {"measurement": "remaining activity at 200 µM", "setting": "LdtMt2", "result": 14.5, "unit": "%"}
    ]},
    {"smiles": "C[Si](C)(C)c1cn(C[C@@H]2CC[C@@H]3CN2C(=O)N3OS(=O)(=O)O)nn1", "note": "[Compound 2a.i]", "values": [
      {"measurement": "Carbamoylation efficacy of β-lactamase BlaMab", "setting": "BlaMab", "result": "(6.2 ± 0.2) × 10^4 M^−1 s^−1"},
      {"measurement": "Carbamoylation efficacy of β-lactamase BlaC", "setting": "BlaC", "result": "<5 × 10^0 M^−1 s^−1"},
      {"measurement": "Residual activity of Ldtfm following pre-incubation", "setting": "Ldtfm; [3]", "result": 88.8, "unit": "%"},
      {"measurement": "Residual activity of Ldtfm following pre-incubation", "setting": "Ldtfm; [4]", "result": 82.7, "unit": "%"},
      {"measurement": "Residual activity of Ldtfm following pre-incubation", "setting": "Ldtfm; [5]", "result": 68.0, "unit": "%"},
      {"measurement": "Residual activity of Ldtfm following pre-incubation", "setting": "Ldtfm; [6]", "result": 50.7, "unit": "%"},
      {"measurement": "Residual activity of Ldtfm following pre-incubation", "setting": "Ldtfm; [7]", "result": 27.2, "unit": "%"},
      {"measurement": "remaining activity at 200 µM", "setting": "LdtMt2", "result": 72.4, "unit": "%"}
    ]}
  ]
}
